Experimental data from patent US9834543B2, “Indazoles and use thereof” (Purdue Pharma L.P., priority 2013, dated 2017).
Where two headings read alike, the source gives them in different places.

Experiments:
[1] = target: human Nav1.7 (Homo sapiens (Human), UniProt Q15858); experiment: FLIPR or FLIPR TETRA sodium dye assay with KCl and test article pre-incubation (sodium mobilization); assay type: cell-based
[2] = target: hNav1.7 (Homo sapiens (Human), UniProt Q15858); experiment: EP (electrophysiology) assay, whole-cell patch clamp in hNav1.7 expressing HEK-293 cells; assay type: cell-based; details: affinity for the inactivated state of the channel; hNav1.7 HEK-293; read-out: Nav1.7 Activity (μM) EP assay Ki
Sequence of hNav1.7 (Q15858 other isoform, or with tags, fused parts or gaps): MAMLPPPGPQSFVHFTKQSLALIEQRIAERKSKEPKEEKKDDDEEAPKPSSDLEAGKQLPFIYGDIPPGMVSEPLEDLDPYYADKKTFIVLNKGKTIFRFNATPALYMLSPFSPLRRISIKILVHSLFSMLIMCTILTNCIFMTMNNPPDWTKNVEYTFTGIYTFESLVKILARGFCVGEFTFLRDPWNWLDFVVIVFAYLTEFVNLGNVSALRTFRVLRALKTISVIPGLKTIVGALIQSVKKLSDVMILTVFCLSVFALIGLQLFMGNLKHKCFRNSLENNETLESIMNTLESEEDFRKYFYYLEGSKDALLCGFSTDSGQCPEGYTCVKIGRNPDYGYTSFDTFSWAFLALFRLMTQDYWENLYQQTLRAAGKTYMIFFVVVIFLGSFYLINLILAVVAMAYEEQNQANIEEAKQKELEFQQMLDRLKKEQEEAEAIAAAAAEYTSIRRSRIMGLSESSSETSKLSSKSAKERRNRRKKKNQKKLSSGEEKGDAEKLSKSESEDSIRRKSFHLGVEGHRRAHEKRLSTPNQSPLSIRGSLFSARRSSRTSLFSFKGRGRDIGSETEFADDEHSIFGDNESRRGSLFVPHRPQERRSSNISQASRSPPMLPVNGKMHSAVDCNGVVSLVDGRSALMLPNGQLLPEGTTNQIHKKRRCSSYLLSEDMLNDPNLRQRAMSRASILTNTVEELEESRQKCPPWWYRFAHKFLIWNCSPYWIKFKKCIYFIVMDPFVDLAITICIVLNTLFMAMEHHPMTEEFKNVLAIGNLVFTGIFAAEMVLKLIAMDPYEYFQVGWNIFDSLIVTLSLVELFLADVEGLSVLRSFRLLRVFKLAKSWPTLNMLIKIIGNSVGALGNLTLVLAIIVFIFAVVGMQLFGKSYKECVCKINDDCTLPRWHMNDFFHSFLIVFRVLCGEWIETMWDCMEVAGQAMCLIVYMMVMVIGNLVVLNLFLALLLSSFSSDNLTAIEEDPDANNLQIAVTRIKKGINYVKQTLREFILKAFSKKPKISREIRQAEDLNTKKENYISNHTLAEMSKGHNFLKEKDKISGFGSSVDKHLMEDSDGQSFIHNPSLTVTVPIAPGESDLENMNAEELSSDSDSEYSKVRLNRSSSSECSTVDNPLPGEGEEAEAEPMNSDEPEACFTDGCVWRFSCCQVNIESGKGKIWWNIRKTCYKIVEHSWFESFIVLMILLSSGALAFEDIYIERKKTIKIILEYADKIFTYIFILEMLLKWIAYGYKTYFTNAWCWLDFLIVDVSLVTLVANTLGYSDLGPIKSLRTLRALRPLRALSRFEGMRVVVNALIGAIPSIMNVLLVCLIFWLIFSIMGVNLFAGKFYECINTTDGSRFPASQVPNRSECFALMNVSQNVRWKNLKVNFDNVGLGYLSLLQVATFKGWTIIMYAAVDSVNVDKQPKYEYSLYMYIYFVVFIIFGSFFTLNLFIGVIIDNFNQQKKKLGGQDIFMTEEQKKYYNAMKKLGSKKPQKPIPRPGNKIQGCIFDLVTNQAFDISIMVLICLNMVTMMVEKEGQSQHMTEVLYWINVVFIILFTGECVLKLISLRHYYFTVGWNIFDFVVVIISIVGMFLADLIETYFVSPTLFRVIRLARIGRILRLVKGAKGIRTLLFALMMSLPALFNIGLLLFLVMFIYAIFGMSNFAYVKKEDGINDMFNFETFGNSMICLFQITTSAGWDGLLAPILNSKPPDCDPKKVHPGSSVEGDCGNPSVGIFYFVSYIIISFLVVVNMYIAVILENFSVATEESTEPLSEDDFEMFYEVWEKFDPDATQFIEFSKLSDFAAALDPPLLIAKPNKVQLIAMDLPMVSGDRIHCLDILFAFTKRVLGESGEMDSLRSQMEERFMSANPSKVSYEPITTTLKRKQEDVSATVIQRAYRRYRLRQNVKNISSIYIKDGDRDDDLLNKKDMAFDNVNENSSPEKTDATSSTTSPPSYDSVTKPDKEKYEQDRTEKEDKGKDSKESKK
Procedure: Cells Manual Electrophysiology: The hNav1.7 expressing HEK-293 cells are plated on 35 mm culture dishes pre-coated with poly-D-lysine in standard DMEM culture media (Mediatech, Inc., Herndon, Va.) and incubated in a 5% CO2 incubator at 37° C. Cultured cells are used approximately 12-48 h after plating.
The hNav1.7 expressing HEK-293 cells are plated on tissue culture flasks in standard DMEM culture media (Mediatech, Inc.) and incubated in a 5% CO2 incubator at 37° C. Cultured cells are used approximately 12-48 hours after plating.
On the day of experimentation, the 35 mm dish is placed on the stage of an inverted microscope equipped with a perfusion system that continuously perfuses the culture dish with fresh recording media. A gravity driven superfusion system is used to apply test solutions directly to the cell under evaluation. This “shooter” system consists of an array of glass pipette glass connected to a motorized horizontal translator. The outlet of the shooter is positioned approximately 100 μm from the cell of interest.
Gigaseals are formed and the whole-cell configuration is established in voltage clamp mode, and membrane currents generated by hNav1.7 channels are recorded. […] Signals are sampled at 50 kHz and low pass filtered at 3 kHz.
Gigaseals are formed and the whole-cell configuration is established in voltage clamp mode, and membrane currents generated by hNav1.7 are recorded. […]
After a stable baseline is established, the test compound is applied and block of the current elicited by the test pulse assessed. […] An estimate of the Ki is calculated as follows: Ki=[drug]*{FR/(1−FR)}, Eq. 1 where [drug] is the concentration of a drug, and FR=I(after drug)/I(control), Eq. 2
where I is the peak current amplitude. If multiple concentrations were used, Ki is determined from the fit of a logistic equation to FRs plotted against corresponding drug concentrations. […]
The compound testing protocol is a series of 10 ms depolarizations from the Vh1 (determined from the SSIN) to the Vt (determined from the I-V protocol) repeated every 10-15 seconds. […]

Sequence of human Nav1.7 (Q15858 with tags, fused parts or gaps limits assumed): as the sequence (Q15858 other isoform, or with tags, fused parts or gaps) above

Compound | IC50 [1] [µM] | Ki [2] [µM] | IC50 ([1]; recombinant human Nav1.7 in HEK293, veratridine and scorpion venom agonists) [µM]
Cn1ncc2c(Oc3ccc(-c4cccc(C(N)=O)n4)cc3)ccc(Cl)c21 [Compound 22, 6-(4-((7-chloro-1-methyl-1H-indazol-4-yl)oxy)phenyl)picolinamide] | 0.53 ± 0.034 |  | 
Cn1ncc2c(Oc3ccc(-c4nc(C(N)=O)cc([C@H](O)CO)n4)cc3)ccc(Cl)c21 [Compound 34, (S)-2-(4-((7-chloro-1-methyl-1H-indazol-4-yl)oxy)phenyl)-6-(1,2-dihydroxyethyl)pyrimidine-4-carboxamide] | 0.157 ± 0.023 | 0.12 ± 0.027 | 
Cn1ncc2c(Oc3ccc(-c4nc(N[C@H]5CCNC5=O)cc(C(N)=O)n4)cc3)ccc(Cl)c21 [Compound 20, (S)-2-(4-((7-chloro-1-methyl-1H-indazol-4-yl)oxy)phenyl)-6-((2-oxopyrrolidin-3-yl)amino)pyrimidine-4-carboxamide] | 0.405 ± 0.06 |  | 
Cn1ncc2c(Oc3ccc(-c4cc([C@H](O)CO)cc(C(N)=O)n4)cc3)ccc(Cl)c21 [Compound 38, (S)-6-(4-((7-chloro-1-methyl-1H-indazol-4-yl)oxy)phenyl)-4-(1,2-dihydroxyethyl)picolinamide] | 0.45 ± 0.026 |  | 
Cn1ncc2c(Oc3ccc(S(=O)(=O)Nc4nncs4)cc3)ccc(Cl)c21 [Compound 42, 4-((7-chloro-1-methyl-1H-indazol-4-yl)oxy)-N-(1,3,4-thiadiazol-2-yl)benzenesulfonamide] | > 20 | 9.01 ± 4.76 | 
Cn1ncc2c(Oc3cc(F)c(S(=O)(=O)Nc4nncs4)cc3Cl)ccc(Cl)c21 [Compound 41, 5-chloro-4-((7-chloro-1-methyl-1H-indazol-4-yl)oxy)-2-fluoro-N-(1,3,4-thiadiazol-2-yl)benzenesulfonamide] |  |  | > 20
Cn1ncc2c(Oc3ccc(-c4cc([C@@H](O)CO)cc(C(N)=O)n4)cc3)ccc(F)c21 [Compound 40, (R)-4-(1,2-dihydroxyethyl)-6-(4-((7-fluoro-1-methyl-1H-indazol-4-yl)oxy)phenyl)picolinamide] | 0.596 ± 0.076 |  | 
Cn1ncc2c(Oc3ccc(-c4cc([C@H](O)CO)cc(C(N)=O)n4)cc3)ccc(F)c21 [Compound 39, (S)-4-(1,2-dihydroxyethyl)-6-(4-((7-fluoro-1-methyl-1H-indazol-4-yl)oxy)phenyl)picolinamide] | 0.797 ± 0.051 | 0.47 ± 0.046 | 
